{
  "source": "patent US20240208898A1",
  "about": "“ENAMINE N-OXIDES: SYNTHESIS AND APPLICATION TO HYPOXIA-RESPONSIVE PRODRUGS AND IMAGING AGENTS” (DANA-FARBER CANCER INSTITUTE, INC., priority 2021, published 2024)",
  "key": {"[1]": {"test": "Assay evaluating the importance of enamine N-oxide unsaturation", "assay_type": "physicochemical", "conditions": "reductants B2(OH)4 or Fe^2+, 100 mM HEPES, pH 7.4, HPLC", "description": "Enamine N-oxide 6 or alkyl N-oxide S4 (50 μL, 4 mM in water; 200 μM final concentration) were added to a HEPES buffered solution (750 μL, 100 mM HEPES, pH 7.4; 1 mL final volume) in an HPLC vial. N-oxide reduction was initiated by adding a solution of tetrahydroxydiboron (200 μL, 200 nmol, 1 equiv, 1 mM in ethanol) and the resulting solution was incubated at room temperature. After 1 hour, solutions were analyzed by HPLC (C18 column, 4.6×50 mm, 2.4 μm particle size, 1 mL/minute flow rate, eluent: gradient H2O+0.1% TFA (1 minute), gradient 0→100% MeCN/H2O+0.1% TFA (4 minutes), MeCN+0.1% TFA (1 minute)). p-Cresol was quantified by its absorbance at 280 nm."}, "[2]": {"test": "Degradation studies of isolated enamine N-oxides in solvent at 60° C.", "assay_type": "physicochemical", "conditions": "6 hours, NMR", "description": "Degradation studies were performed using isolated enamine N-oxides (5:5′, 15:1). An LC-MS vial was charged with a 0.1 M solution of enamine N-oxides (23.9 mg, 100 μmol) in the reaction solvent of interest and heated to 60° C. for 6 hours. After heating, the reaction mixture was concentrated under reduced pressure and dissolved in CDCl3. The amounts of enamine N-oxides (5 and 5′) and p-fluorophenol (4) were determined by ^1H and ^19F-NMR integrations using benzotrifluoride as an internal standard. Regioisomer ratios in different solvents were determined by ^1H-NMR integrations of vicinal versus geminal olefinic protons."}, "[3]": {"test": "Enamine N-oxides with reducing agents", "assay_type": "physicochemical", "conditions": "probe 200 μM", "description": "A stock solution of 2-nitroaniline enamine N-oxide probe 32c (50 μL, 4 mM in 100 mM phosphate buffer, pH 7.4; 200 μM final concentration) was added to a phosphate buffered solution (850 μL, 100 mM phosphate, pH 7.4; 1 mL final volume) in a semi-micro quartz cell open to ambient atmosphere. A solution of glutathione (100 μL, 50 mM in phosphate buffer, pH 7.4; 5 mM final concentration) or cysteine (100 μL, 50 mM in phosphate buffer, pH 7.4; 5 mM final concentration) or tetrahydroxydiboron (100 μL, […] in methanol; 200 μM final concentration) were added to the solution. Reactions with glutathione or cysteine were incubated at 37° C. The reaction with tetrahydroxydiboron was carried out at room temperature. Wavelength scans (400-550 nm) were recorded at several time points (0, 1, and 2 hours)."}, "[4]": {"system": "human liver microsomes", "test": "In vitro microsomal reduction assay", "assay_type": "in vitro ADME", "conditions": "hypoxic vs normoxic, 2-nitroaniline released, absorbance at λ=412 nm", "description": "All reactions were prepared and carried out in a semi-micro spectrophotometer quartz cell fitted with a septum screw cap (Starna Cells). For anaerobic conditions, all solutions were degassed for 30 minutes by sparging with nitrogen. Cells were maintained under anaerobic conditions using nitrogen lines connected to a nitrogen gas manifold or using a nitrogen-filled balloon. In experiments requiring normoxic conditions, the quartz cells were left open to ambient atmosphere. Unless otherwise stated, reactions were prepared as follows. A solution of human liver microsomes (10 μL, 20 mg/mL in phosphate buffer, pH 7.4, Corning; 200 μg/mL final concentration) followed by a solution of NADPH (16.7 μL, 60 mM in 10 mM NaOH solution; 1 mM final concentration) was added to a phosphate buffered solution ([…], 100 mM phosphate buffer, pH 7.4; 1 mL final volume) at room temperature. After 1 hour, reactions were initiated by the addition of a stock solution of the 2-nitroaniline enamine N-oxide probes 32a-f (50 μL, 4 mM in phosphate buffer, pH 7.4; 200 μM final concentration). […]\nHeat-inactivated microsomes were prepared for control experiments by heating a solution of human liver microsomes (20 mg/mL in phosphate buffer, pH 7.4, Corning) to 45° C. for 30 minutes. […]"}, "[5]": {"test": "Assay evaluating the stability of enamine N-oxides to metal cations", "assay_type": "physicochemical", "conditions": "200 μM, 2 mM cations, 1 h, room temperature, 100 mM HEPES pH 7.4; Fe^2+ with 10 mM sodium dithionite", "description": "Enamine N-oxide 3a (50 μL, 4 mM in water; 200 μM final concentration) was added to a HEPES buffered solution (946 μL, 100 mM HEPES, pH 7.4; 1 mL final volume) in an HPLC vial. A solution of metal cation (4 μL, 500 mM in water, 2 mM final concentration) was then added and the solution was incubated at room temperature. After 1 hour, solutions were analyzed by HPLC (C18 column, 4.6×50 mm, 2.4 μm particle size, 1 mL/minute flow rate, eluent: gradient H2O+0.1% TFA (1 minute), gradient 0→100% MeCN/H2O+0.1% TFA (4 minutes), MeCN+0.1% TFA (1 minute)). p-Cresol was quantified by its absorbance of 280 nm.\nThe following cations were assayed using this procedure: sodium chloride, potassium chloride, calcium chloride, magnesium chloride, manganese (II) chloride, cobalt (II) sulfate, zinc (II) chloride, nickel (II) acetate, and iron (III) chloride.\nFor iron (II) sulfate, a solution of iron (II) sulfate (2 μL, 1 M in 1 N HCl; 2 mM final concentration) was added followed by a solution of sodium dithionite (10 μL, 1 M in 1 N NaOH; 10 mM final concentration)."}, "[6]": {"test": "Nucleophilic trapping experiment with benzyl mercaptan", "assay_type": "physicochemical", "conditions": "benzyl mercaptan (10 equiv), room temperature", "description": "A round-bottom flask was charged with (E)-N,N-diethyl-4-phenyl-3-(p-tolyloxy)but-1-en-1-amine oxide (S6, 26.0 mg, 79.8 μmol, 1 equiv) and dissolved with chloroform-d (773 μL) at room temperature. Benzylmercaptan (93.7 μL, 798 μmol, 10.0 equiv) was then added via syringe. After 5 minutes, analysis by TLC indicated no reduction by benzylmercaptan. Solid bis(pinacolato)diboron (20.3 mg, 79.8 μmol, 1.00 equiv) was then added in one portion at room temperature. After 15 minutes, the reaction was directly loaded onto a silica gel column. The reaction mixture was purified by flash column chromatography (eluent: 100% chloroform) to provide aldehyde S7 (20.2 mg, 94%) as an off-white solid. ^1H NMR (500 MHz, CDCl3, 25° C.): δ 9.51 (dd, J=2.5, 1.4 Hz, 1H), 7.33-7.18 (m, 8H), 7.14-7.08 (m, 2H), 3.68 (q, J=13.4, 10.4 Hz, 2H), 3.20 (tdd, J=8.1, 6.5, 5.6 Hz, 1H), 2.97 (dd, J=13.7, 6.4 Hz, 1H), 2.78 (dd, J=13.8, 8.2 Hz, 1H), 2.60-2.40 (m, 2H). ^13C NMR (126 MHz, CDCl3, 25° C.): δ 200.7, 138.6, 138.1, 129.6, 129.2, 128.8, 128.7, 127.4, 127.0, 47.8, 42.3, 40.5, 36.1. FTIR (thin film) cm^−1: 3026 (w), 2922 (w), 1722 (s), 1494 (m), 1453 (m), 700 (s). HRMS (ESI) (m/z): calc'd for C17H19OS [M+H]^+: 271.1151, found: 271.1149. TLC (100% chloroform), Rf: 0.45 (UV, KMnO4)."}, "[7]": {"test": "Thermal decomposition of enamine N-oxide (Cope elimination)", "assay_type": "physicochemical", "conditions": "60° C. in CDCl3 for 1 h", "description": "A 1-dram vial was charged with enamine N-oxide S1 (90.0 mg, 179 μmol, 1 equiv) and dissolved in chloroform-d (1.79 mL). The reaction vial was flushed with nitrogen, sealed with a cap and Parafilm, and heated to 60° C. After 1 hour, the oil bath was removed and the reaction was cooled to room temperature. The reaction mixture was purified by flash column chromatography on silica gel (eluent: 5% CMA in chloroform). Fractions containing the desired compound were combined and the solvent was removed under reduced pressure at 0° C. with a rotary evaporator to provide the product S2 (14.9 mg, 34%) as an off-white solid. ^1H NMR (500 MHz, CDCl3, 25° C.): δ 7.94 (d, J=8.3, 1H), 7.86 (d, J=7.3, 1H), 7.79 (d, J=7.9, 1H), 7.55-7.35 (m, 4H), 7.31 (d, J=9.6, 1H), 6.16 (dd, J=36.1, 9.7, 1H), 4.08 (d, J=14.0, 2H), 3.65 (s, 3H). ^13C NMR (126 MHz, CDCl3, 25° C.): δ 165.7 (d, J=277.1), 134.2, 132.0, 130.7 (d, J=3.0), 130.4 (d, J=3.2), 129.1, 128.6, 128.1, 126.8, 126.1, 125.7, 123.6, 100.2 (d, J=8.1), 52.6, 36.5 (d, J=26.2). ^19F NMR (471 MHz, CDCl3, 25° C.): δ −89.5. FTIR (thin film) cm^−1: 2922 (m), 2855 (w), 1662 (m), 1569 (w), 1408 (m), 1140 (s), 779 (s). HRMS (ESI) (m/z): calc'd for C15H15FNO [M+H]^+: 244.1132, found: 244.1129. TLC (5% CMA/chloroform), Rf: 0.30 (UV, KMnO4).\nA 1-dram vial was charged with enamine N-oxide S1 (90.0 mg, 179 μmol, 1 equiv) and dissolved in chloroform-d (1.79 mL). […]"}},
  "data": [
    {"smiles": "CC[N+]([O-])(CC)CCCOc1ccc(C)cc1", "note": "[alkyl N-oxide S4, N,N-diethyl-3-(p-tolyloxy)propan-1-amine oxide]", "values": [
      {"measurement": "release of p-cresol upon reduction", "setting": "[1]", "result": "did not lead to the release of p-cresol"}
    ]},
    {"smiles": "CC[N+]([O-])(/C=C/COc1ccc(F)cc1)CC", "note": "[enamine N-oxide 5, (E)-N,N-diethyl-3-(4-fluorophenoxy)prop-1-en-1-amine oxide]", "values": [
      {"measurement": "Yield (%) 4 (p-fluorophenol formed)", "setting": "[2]; CHCl3, 0.1 M", "result": 29, "unit": "%"},
      {"measurement": "Yield (%) 5 + 5′ (enamine N-oxide remaining)", "setting": "[2]; CHCl3, 0.1 M", "result": 45, "unit": "%"},
      {"measurement": "Yield (%) 4 (p-fluorophenol formed)", "setting": "[2]; TFE, 0.1 M", "result": "<1", "unit": "%"},
      {"measurement": "Yield (%) 5 + 5′ (enamine N-oxide remaining)", "setting": "[2]; TFE, 0.1 M", "result": 96, "unit": "%"}
    ]},
    {"smiles": "CC[N+]([O-])(/C=C/COC(=O)Nc1ccccc1[N+](=O)[O-])CC", "note": "[probe 32c, (E)-N,N-diethyl-3-(((2-nitrophenyl)carbamoyl)oxy)prop-1-en-1-amine oxide]", "values": [
      {"measurement": "reactivity toward cysteine", "setting": "[3]; 5 mM cysteine, phosphate buffer pH 7.4, 37° C., over 2 h", "result": "unreactive"},
      {"measurement": "reactivity toward glutathione", "setting": "[3]; 5 mM glutathione (GSH), phosphate buffer pH 7.4, 37° C., over 2 h", "result": "unreactive"},
      {"measurement": "time until probe is fully reduced by diboron", "setting": "[3]; B2(OH)4 1 equiv 200 μM, room temperature", "result": "≤ 10", "unit": "min"},
      {"measurement": "enhancement in the initial rate of reduction under hypoxic conditions", "setting": "[4]", "result": 21, "unit": "fold"}
    ]},
    {"smiles": "CC[N+]([O-])(/C=C/COc1ccc(C)cc1)CC", "note": "[enamine N-oxide 6]", "values": [
      {"measurement": "release of p-cresol upon reduction", "setting": "[1]", "result": "led to the release of p-cresol"},
      {"measurement": "stability in the presence of different metal cations", "setting": "[5]", "result": "Only Fe^2+ was capable of reducing enamine N-oxides"}
    ]},
    {"smiles": "CC[N+]([O-])(/C=C/C(Cc1ccccc1)Oc1ccc(C)cc1)CC", "note": "(stereo not shown) [enamine N-oxide S6, (E)-N,N-diethyl-4-phenyl-3-(p-tolyloxy)but-1-en-1-amine oxide]", "values": [
      {"measurement": "reduction in the absence of diboron", "setting": "[6]", "result": "not reduced in the absence of diboron"}
    ]},
    {"smiles": "C[N+]([O-])(/C=C/C(F)(F)Cc1cccc2ccccc12)CCCCC(=O)NCc1ccc2ccccc2c1", "note": "(stereo not shown) [enamine N-oxide S1, (E)-N-(3,3-difluoro-4-(naphthalen-1-yl)but-1-en-1-yl)-N-methyl-5-((naphthalen-2-ylmethyl)amino)-5-oxopentan-1-amine oxide]", "values": [
      {"measurement": "thermal decomposition", "setting": "[7]", "result": "two new products were isolated in addition to the starting material"}
    ]}
  ]
}
